A value given as a limit tells only on which side of the number the result lay.

Among the data in patent publication US12054487B2, “Muscarinic acetylcholine M1 receptor antagonists” (Contineum Therapeutics, Inc., priority 2018, dated 2024) are IC50 values, retold here.

Common to all, as to format: cell-based
One assay concerns the target T1, human M1 receptor (Homo sapiens, UniProt P11229).
T1 construct: host or cells: CHO-K1
T1 sequence (P11229 1-460): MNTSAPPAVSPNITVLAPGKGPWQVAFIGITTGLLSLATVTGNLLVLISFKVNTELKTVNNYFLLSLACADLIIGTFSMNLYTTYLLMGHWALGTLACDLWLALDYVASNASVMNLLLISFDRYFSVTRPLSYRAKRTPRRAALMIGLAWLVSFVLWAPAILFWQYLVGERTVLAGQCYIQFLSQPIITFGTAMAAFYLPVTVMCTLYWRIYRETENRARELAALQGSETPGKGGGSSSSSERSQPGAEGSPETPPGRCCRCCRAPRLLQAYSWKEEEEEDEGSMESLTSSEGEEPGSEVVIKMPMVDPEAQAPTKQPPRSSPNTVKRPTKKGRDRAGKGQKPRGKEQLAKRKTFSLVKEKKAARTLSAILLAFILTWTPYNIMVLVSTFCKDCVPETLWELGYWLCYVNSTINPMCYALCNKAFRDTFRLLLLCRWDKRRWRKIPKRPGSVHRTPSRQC
The experiment in a line: In vitro functional assay of muscarinic acetylcholine receptor activity (aequorin calcium flux, antagonist mode vs EC80 acetylcholine), M1. To be noted: CHO-K1 cells stably expressing human M1 receptor with Aequorin; decrease in EC80 acetylcholine response. In a few lines:
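CHO-K1 cells stably co-expressing human M1 and aequorin were loaded with 5 uM coelenterazine h for 4 h at room temperature in the dark. IC50 came from the drop in luminescence.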

The target of a further assay is T2, M2 (Homo sapiens, UniProt P08172).
T2 sequence (P08172 1-466): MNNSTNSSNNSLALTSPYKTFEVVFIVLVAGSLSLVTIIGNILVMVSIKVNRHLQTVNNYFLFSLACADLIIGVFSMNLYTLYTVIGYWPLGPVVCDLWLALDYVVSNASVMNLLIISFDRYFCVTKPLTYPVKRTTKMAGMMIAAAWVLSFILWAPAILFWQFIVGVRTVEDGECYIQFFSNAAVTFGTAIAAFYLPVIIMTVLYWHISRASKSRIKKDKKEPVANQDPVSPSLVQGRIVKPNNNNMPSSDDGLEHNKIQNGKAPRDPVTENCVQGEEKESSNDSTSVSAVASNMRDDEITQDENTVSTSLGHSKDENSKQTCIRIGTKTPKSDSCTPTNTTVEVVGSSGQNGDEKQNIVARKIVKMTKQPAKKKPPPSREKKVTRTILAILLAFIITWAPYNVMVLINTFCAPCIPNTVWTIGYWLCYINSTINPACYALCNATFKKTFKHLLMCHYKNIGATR
As to the kind of experiment: In vitro functional assay of muscarinic acetylcholine receptor activity, M2. The conditions noted are these: antagonist activity; M2 method not separately described.

Another assay concerns the target M3 (Homo sapiens, UniProt P20309). The experiment in a line: In vitro functional assay of muscarinic acetylcholine receptor activity, M3. To be noted: antagonist activity; M3 method not separately described.

Sequence of M3 (P20309 whole entry): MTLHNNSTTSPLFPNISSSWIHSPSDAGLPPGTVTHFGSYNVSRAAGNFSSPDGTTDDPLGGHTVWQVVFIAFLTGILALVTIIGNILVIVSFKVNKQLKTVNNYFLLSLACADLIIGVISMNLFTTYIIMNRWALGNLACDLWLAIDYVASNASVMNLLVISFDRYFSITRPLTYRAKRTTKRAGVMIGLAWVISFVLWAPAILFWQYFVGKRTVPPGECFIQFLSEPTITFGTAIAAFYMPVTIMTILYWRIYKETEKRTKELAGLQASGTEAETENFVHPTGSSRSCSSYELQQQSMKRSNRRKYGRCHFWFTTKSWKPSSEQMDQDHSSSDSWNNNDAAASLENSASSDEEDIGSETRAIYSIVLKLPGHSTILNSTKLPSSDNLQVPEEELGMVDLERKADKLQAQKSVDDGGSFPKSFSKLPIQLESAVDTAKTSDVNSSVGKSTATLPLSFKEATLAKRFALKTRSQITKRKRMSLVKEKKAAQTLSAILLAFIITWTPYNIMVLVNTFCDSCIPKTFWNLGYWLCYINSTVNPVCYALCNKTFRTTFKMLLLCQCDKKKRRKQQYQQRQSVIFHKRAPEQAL

Consider `O=C1[C@@H](CCCc2cccn3ncnc23)C[C@H]2CN(c3ccc(F)cn3)CCN12` [Example 62, (7S,8aS)-2-(5-fluoropyridin-2-yl)-7-(3-{[1,2,4]triazolo[1,5-a]pyridin-8-yl}propyl)-octahydropyrrolo[1,2-a]pyrazin-6-one], for which the IC50 (commonly the concentration that inhibits the measured activity by half) on human M1 receptor is below 100 nM; against M2, 1000 to 10000 nM; against M3, 1 to 10 µM.
In the case of `O=C1[C@@H](CCCc2cccn3ncnc23)C[C@H]2CN(c3ncc(F)cn3)CCN12` [Example 63, (7S,8aS)-7-(3-([1,2,4]triazolo[1,5-a]pyridin-8-yl)propyl)-2-(5-fluoropyrimidin-2-yl)hexahydropyrrolo[1,2-a]pyrazin-6(2H)-one], the IC50 at human M1 receptor is below 100 nM; against M2 it was above 10000 nM; at M3, 1 to 10 µM.
As to `O=C1[C@@H](CCCc2cccn3ncnc23)C[C@H]2CN(c3ncc(Cl)cn3)CCN12` [Example 64, (7S,8aS)-7-(3-([1,2,4]triazolo[1,5-a]pyridin-8-yl)propyl)-2-(5-chloropyrimidin-2-yl)hexahydropyrrolo[1,2-a]pyrazin-6(2H)-one], the values for the IC50 on human M1 receptor, against M2 and on M3 were below 100 nM, 100 to 1000 nM and 1 to 10 µM, respectively.
With `Cc1cnc(N2CCN3C(=O)[C@@H](CCCc4cccn5ncnc45)C[C@H]3C2)nc1` [Example 65, (7S,8aS)-7-(3-([1,2,4]triazolo[1,5-a]pyridin-8-yl)propyl)-2-(5-methylpyrimidin-2-yl)hexahydropyrrolo[1,2-a]pyrazin-6(2H)-one], the IC50 at human M1 receptor is 100 to 1000 nM; at M2, 1000 to 10000 nM; against M3, above 10 µM.
In the same order, the values of `O=C1[C@@H](CCCc2cccn3ncnc23)C[C@H]2CN(c3ncccn3)CCN12` [Example 66, (7S,8aS)-7-(3-([1,2,4]triazolo[1,5-a]pyridin-8-yl)propyl)-2-(pyrimidin-2-yl)hexahydropyrrolo[1,2-a]pyrazin-6(2H)-one] are 100 to 1000 nM, above 10000 nM and above 10 µM.
For `N#Cc1ccc(N2CCN3C(=O)[C@@H](CCCc4cccn5ncnc45)C[C@H]3C2)cn1` [Example 67, 5-((7S,8aS)-7-(3-([1,2,4]triazolo[1,5-a]pyridin-8-yl)propyl)-6-oxohexahydropyrrolo[1,2-a]pyrazin-2(1H)-yl)picolinonitrile], the IC50 was below 100 nM at human M1 receptor, 100 to 1000 nM against M2 and below 0.1 µM against M3.
The matching figures for `N#Cc1ccc(N2CCN3C(=O)[C@@H](CCCc4cccn5ncnc45)C[C@H]3C2)nc1` [Example 68, 6-((7S,8aS)-7-(3-([1,2,4]triazolo[1,5-a]pyridin-8-yl)propyl)-6-oxohexahydropyrrolo[1,2-a]pyrazin-2(1H)-yl)nicotinonitrile]: below 100 nM, 100 to 1000 nM and below 0.1 µM.
The matching figures for `O=C1[C@@H](CCCc2cccn3ncnc23)C[C@H]2CN(c3ccc(F)cc3F)CCN12` [Example 71, (7S,8aS)-7-(3-([1,2,4]triazolo[1,5-a]pyridin-8-yl)propyl)-2-(2,4-difluorophenyl)hexahydropyrrolo[1,2-a]pyrazin-6(2H)-one]: 1000 to 10000 nM, 1000 to 10000 nM and above 10 µM.
Turning to `O=C1[C@@H](CCCc2c(F)ccn3ncnc23)C[C@H]2CN(c3ccc(F)cn3)CCN12` [Example 78, (7S,8aS)-7-(3-{7-fluoro-[1,2,4]triazolo[1,5-a]pyridin-8-yl}propyl)-2-(5-fluoropyridin-2-yl)-octahydropyrrolo[1,2-a]pyrazin-6-one], the IC50 on human M1 receptor was below 100 nM; against M2 it was 1000 to 10000 nM; on M3 it was 1 to 10 µM.
For the compound `O=C1[C@@H](CCCc2cccn3nccc23)C[C@H]2CN(c3ccc(F)cn3)CCN12` [Example 87, (7S,8aS)-2-(5-fluoropyridin-2-yl)-7-(3-(pyrazolo[1,5-a]pyridin-4-yl)propyl)hexahydropyrrolo[1,2-a]pyrazin-6(2H)-one], the results for the IC50 at human M1 receptor, at M2 and against M3 were 100 to 1000 nM, 1000 to 10000 nM and 1 to 10 µM, respectively.
The matching figures for `O=C1[C@@H](CCCc2cccn3nccc23)C[C@H]2CN(c3ncc(F)cn3)CCN12` [Example 88, (7S,8aS)-2-(5-fluoropyrimidin-2-yl)-7-(3-(pyrazolo[1,5-a]pyridin-4-yl)propyl)hexahydropyrrolo[1,2-a]pyrazin-6(2H)-one]: below 100 nM, 1000 to 10000 nM and 1 to 10 µM.
Turning to `O=C1C(CCCc2c(F)ccc3nccn23)C[C@H]2CN(c3ccc(F)cn3)CCN12` (stereo partly drawn) [Example 89, (8aS)-7-(3-(6-fluoroimidazo[1,2-a]pyridin-5-yl)propyl)-2-(5-fluoropyridin-2-yl)hexahydropyrrolo[1,2-a]pyrazin-6(2H)-one], the IC50 at human M1 receptor is below 100 nM; at M2, 1000 to 10000 nM; at M3 it was 1 to 10 µM.
In the case of `O=C1[C@@H](CCCc2cccc3nccnc23)C[C@H]2CN(c3ccc(F)cn3)CCN12` [Example 93, (7S,8aS)-2-(5-fluoropyridin-2-yl)-7-(3-(quinoxalin-5-yl)propyl)hexahydropyrrolo[1,2-a]pyrazin-6(2H)-one], the IC50 is below 100 nM at human M1 receptor, above 10000 nM against M2 and 1 to 10 µM against M3.
